Read-outs that look alike come from different tables or passages of the source.
What was measured:
[1] = Parallel artificial membrane permeability (PAMPA) assay; assay type: in vitro ADME; details: for Papp: PAMPA, read-out: PAMPA Peff
Method: The general permeability of the compound was assessed using the parallel artificial membrane permeability (PAMPA) assay and the permeability-glycoprotein (P-gp) assay was used to specifically test for brain penetration. PAMPA data were generated as previously reported by our group.[44] The P-gp assay, which evaluates the brain penetration of test compounds, was performed as described elsewhere.[45] Briefly, transfected porcine kidney epithelial (LLC-PK1) cells expressing human or mouse P-gp were cultured on 96-well semipermeable filter membrane plates (Millipore, Darmstadt, Germany). Cells formed a polarized monolayer with tight junctions that acted as a barrier between apical and basolateral compartments. P-gp was expressed in the apical-facing membrane of the monolayer (tightness confirmed using Lucifer yellow). To determine the unidirectional permeability (Papp) of RNB-61, samples were added separately to the apical (for A > B Papp) and basolateral (for B > A Papp) sides of the cell monolayer (i.e., donor compartments), and RNB-61 movement into the respective receiver compartments was measured by LC-MS/MS over a 3 h incubation at 37 °C. The effect of P-gp was measured by expressing the efflux ratio of the unidirectional A > B and B > A Papp values. The mean permeability (A > B and B > A Papp) was determined in the absence of P-gp via the addition of the selective P-gp inhibitor, tariquidar.

[2] = molecular target: T1, human Q63R variant CB2R (Homo sapiens, UniProt P34972, Q63R); experiment: cAMP assay in CHO cells; assay type: cell-based; details: mean ± SD
T1 construct: expressed in transfected cells; host or cells: CHO cells
T1 sequence (P34972 whole entry Q63R): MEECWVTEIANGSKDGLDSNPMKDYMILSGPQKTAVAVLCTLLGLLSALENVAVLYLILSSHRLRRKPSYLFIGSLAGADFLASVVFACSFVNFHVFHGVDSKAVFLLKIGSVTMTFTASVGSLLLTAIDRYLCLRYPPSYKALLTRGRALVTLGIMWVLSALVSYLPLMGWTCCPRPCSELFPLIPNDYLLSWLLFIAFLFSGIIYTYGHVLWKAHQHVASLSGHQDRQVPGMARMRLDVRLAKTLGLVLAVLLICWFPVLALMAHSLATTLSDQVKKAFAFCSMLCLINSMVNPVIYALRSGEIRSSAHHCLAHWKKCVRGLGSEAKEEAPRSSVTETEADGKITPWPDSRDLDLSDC

Structure (SMILES): Cn1c(C(C)(C)C)cc(=NC(=O)c2cc(C(F)(F)F)ccc2OCC(C)(C)O)n1CC1CCC1 [RNB-61]
- PAMPA %Acc [1]: 6%
- PAMPA %Don [1]: 22%
- PAMPA %Mem [1]: 72%
- PAMPA Peff [1]: 2.14 × 10^–6 cm s^–1
- Papp ([1]; Table 1): 2.14 ×10⁻⁶ cm/s
- Papp [1]: 0.9 ×10⁻⁶ cm/s
- EC50 [2]: 0.29 ± 0.07 nM

From PMC11320734 (ACS Pharmacology & Translational Science, 2024)
